PubChem BioAssay (NCI)
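48-hour exposure; five concentrations; linearly interpolated endpoints. At the TGI there is no net growth.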

How the values were obtained:
Assay in all cases: growth of human tumour cells (NCI), 48 h
[1] = system: 786-0 renal
[2] = system: COLO 205 colon
[3] = system: EKVX NSCLC
[4] = system: HCT-116 colon
[5] = system: HOP-62 NSCLC
[6] = system: K-562 leukemia
[7] = system: M14 melanoma
[8] = system: NCI-H226 lung
[9] = system: NCI-H522 lung
[10] = system: SF-268 CNS
[11] = system: SK-OV-3 ovarian
[12] = system: SR leukemia

Compound: COC(=O)C1=C(OC(=O)/C(=C/c2ccccc2)c2ccc(OC)cc2)C(C(=O)OC)[C@@]2(O)[C@@H](C(=O)OC)[C@H](C)C[C@@H]1[C@@H]2C(=O)OC (stereo partly drawn)
- TGI [1]: > 100 µM
- TGI [2]: > 100 µM
- TGI [3]: > 100 µM
- TGI [4]: > 100 µM
- TGI [5]: > 100 µM
- TGI [6]: > 100 µM
- TGI [7]: > 100 µM
- TGI [8]: > 100 µM
- TGI [9]: > 100 µM
- TGI [10]: > 100 µM
- TGI [11]: > 100 µM
- TGI [12]: > 100 µM

Compound: FC(F)(F)c1cc(N(C2c3ccccc3C=Cc3ccccc32)P(Cl)Cl)cc(C(F)(F)F)c1
- TGI [1]: 35.5 µM
- TGI [2]: 51.6 µM
- TGI [3]: 38.6 µM
- TGI [4]: 40.3 µM
- TGI [5]: 37.3 µM
- TGI [6]: 42.7 µM
- TGI [7]: 58 µM
- TGI [8]: 38.7 µM
- TGI [9]: 28.6 µM
- TGI [10]: 33.8 µM
- TGI [11]: 69.8 µM
- TGI [12]: 46.9 µM

Compound: CC(C)(C)OC(=O)[C@@H]1CCC(=O)N1C1(c2ccccc2)c2ccccc2-c2ccccc21
- TGI [1]: > 100 µM
- TGI [2]: 77.8 µM
- TGI [3]: > 100 µM
- TGI [4]: > 100 µM
- TGI [5]: > 100 µM
- TGI [6]: > 100 µM
- TGI [7]: > 100 µM
- TGI [8]: > 100 µM
- TGI [9]: 94 µM
- TGI [10]: > 100 µM
- TGI [11]: > 100 µM
- TGI [12]: 62.3 µM

Compound: CCCCc1ccc(Nc2ncc3ncn(COCCO)c3n2)cc1
- TGI [1]: > 100 µM
- TGI [2]: > 100 µM
- TGI [3]: 88.7 µM
- TGI [4]: 65.4 µM
- TGI [5]: > 100 µM
- TGI [6]: 52.7 µM
- TGI [7]: 53 µM
- TGI [8]: > 100 µM
- TGI [9]: > 100 µM
- TGI [10]: > 100 µM
- TGI [11]: > 100 µM
- TGI [12]: 52.5 µM

Compound: CCOC(=O)C1CC(C(=O)c2ccccc2)N2c3ccccc3-c3ccccc3C12 (stereo not drawn)
- TGI [1]: > 100 µM
- TGI [2]: > 100 µM
- TGI [3]: > 100 µM
- TGI [4]: > 100 µM
- TGI [5]: > 100 µM
- TGI [6]: > 100 µM
- TGI [7]: 74.2 µM
- TGI [8]: > 100 µM
- TGI [9]: > 100 µM
- TGI [10]: > 100 µM
- TGI [11]: > 100 µM
- TGI [12]: 84.1 µM

Compound: O=C(O)CCC(=O)OCN1C(=O)C2C3C=CC(C2C1=O)C1C2C(=O)N(COC(=O)CCC(=O)O)C(=O)C2C31 (stereo not drawn)
- TGI [1]: > 100 µM
- TGI [2]: > 100 µM
- TGI [3]: > 100 µM
- TGI [4]: > 54.3 µM
- TGI [5]: > 100 µM
- TGI [6]: > 100 µM
- TGI [7]: > 100 µM
- TGI [8]: > 100 µM
- TGI [9]: > 85.8 µM
- TGI [10]: > 100 µM
- TGI [11]: > 100 µM
- TGI [12]: 52.4 µM

Compound: CCOC(=O)/C(C(N)=O)=C(\O)C(=O)/C(Br)=C(\O)c1ccccc1
- TGI [1]: 29.7 µM
- TGI [2]: 33.4 µM
- TGI [3]: 52.8 µM
- TGI [4]: 32 µM
- TGI [5]: 41.5 µM
- TGI [6]: 31.2 µM
- TGI [7]: 29.3 µM
- TGI [8]: 51.6 µM
- TGI [9]: 3.7 µM
- TGI [10]: 39.5 µM
- TGI [11]: > 57.4 µM
- TGI [12]: 12.1 µM

Compound: COc1cc(/C=C2\CC/C(=C\c3cc(OC)c(O)c(OC)c3)C2=O)cc(OC)c1O
- TGI [1]: > 100 µM
- TGI [2]: 54.2 µM
- TGI [3]: 16.5 µM
- TGI [4]: > 23.2 µM
- TGI [5]: > 100 µM
- TGI [6]: 14.2 µM
- TGI [7]: > 23.6 µM
- TGI [8]: > 33.3 µM
- TGI [9]: 2.75 µM
- TGI [10]: 36.5 µM
- TGI [11]: > 100 µM
- TGI [12]: > 100 µM

Compound: N#CC(CCN1CCC(Nc2ccccc2)(c2nnnn2C2CCCCC2)CC1)(c1ccccc1)c1ccccc1
- TGI [1]: > 100 µM
- TGI [2]: > 100 µM
- TGI [3]: > 100 µM
- TGI [4]: > 100 µM
- TGI [5]: > 100 µM
- TGI [6]: > 100 µM
- TGI [7]: > 100 µM
- TGI [8]: > 100 µM
- TGI [9]: > 100 µM
- TGI [10]: > 100 µM
- TGI [11]: > 100 µM
- TGI [12]: > 100 µM

Compound: O=c1[nH]nc(-c2ccccc2)n1/N=C/c1ccc([N+](=O)[O-])o1
- TGI [1]: > 31.7 µM
- TGI [2]: 8.47 µM
- TGI [3]: 24 µM
- TGI [4]: 5.55 µM
- TGI [5]: 19.7 µM
- TGI [6]: > 77.1 µM
- TGI [7]: 11.2 µM
- TGI [8]: 37.5 µM
- TGI [9]: 6.83 µM
- TGI [10]: > 28 µM
- TGI [11]: 65.6 µM
- TGI [12]: > 100 µM

Compound: O[C@@H]1C=C[C@]23CCN(Cc4cc5c(cc42)OCO5)[C@@H]3C1
- TGI [1]: > 100 µM
- TGI [2]: > 100 µM
- TGI [3]: > 100 µM
- TGI [4]: > 100 µM
- TGI [5]: > 100 µM
- TGI [6]: > 100 µM
- TGI [7]: > 100 µM
- TGI [8]: > 100 µM
- TGI [9]: > 100 µM
- TGI [10]: > 100 µM
- TGI [11]: > 100 µM
- TGI [12]: > 100 µM

Compound: Nc1cc2c(c3ccccc13)C(CCl)CN2C(=O)c1cc2cc(NC(=O)Nc3ccc4[nH]c(C(=O)N5CC(CCl)c6c5cc(N)c5ccccc65)cc4c3)ccc2[nH]1 (stereo not drawn)
- TGI [1]: 0.258 µM
- TGI [2]: 2.07 µM
- TGI [3]: 6.38 µM
- TGI [4]: 1.13 µM
- TGI [5]: 1.55 µM
- TGI [6]: > 100 µM
- TGI [7]: 0.644 µM
- TGI [8]: 1.81 µM
- TGI [9]: 1.42 µM
- TGI [10]: 8.15 µM
- TGI [11]: > 24.3 µM
- TGI [12]: 1.13 µM

Compound: Cn1cccc1-c1ccc(-c2ccc(CO)[se]2)[se]1
- TGI [1]: > 100 µM
- TGI [2]: > 86.4 µM
- TGI [3]: > 100 µM
- TGI [4]: > 100 µM
- TGI [5]: > 88.1 µM
- TGI [6]: > 100 µM
- TGI [7]: > 100 µM
- TGI [8]: 5.89 µM
- TGI [9]: 50.1 µM
- TGI [10]: > 100 µM
- TGI [11]: > 78.3 µM
- TGI [12]: 56.9 µM

Compound: C1=C(c2ccccc2)C(N2CCOCC2)Oc2ccccc21 (stereo not drawn)
- TGI [1]: > 100 µM
- TGI [2]: > 100 µM
- TGI [3]: > 100 µM
- TGI [4]: > 100 µM
- TGI [5]: > 100 µM
- TGI [6]: > 100 µM
- TGI [7]: > 100 µM
- TGI [8]: > 100 µM
- TGI [9]: > 100 µM
- TGI [10]: > 100 µM
- TGI [11]: > 100 µM
- TGI [12]: > 100 µM
